Measured values published in patent EP1538162B1, “Compositions for altering mucus secretion” (NORTH CAROLINA STATE UNIVERSITY, priority 1999, dated 2000).

Columns and labels:
MARCKS = test: Phosphorylation state of MARCKS in airway epithelial cells; type: cell-based, human
Description: To detect MARCKS protein in these cells, cells were labeled with ^3H-myristic acid (as MARCKS is myristoylated) for 16 hours in media. Cells were lysed, and MARCKS protein was immunoprecipitated according to the method of Spizz & Blackshear (J Biol Chem 271:553, 1996) using monoclonal antibody 2F12 (a gift from the Blackshear laboratory).
(§1) Phosphorylation of MARCKS by PMA was attenuated by Calphostin C (500 nM). NHBE cells also contained substantial amounts of cGMP-dependent protein kinase type 1α (PKG-1α) activity, which was localized to the cytosolic fraction. […] In addition, the phosphorylation of MARCKS induced by PMA was reversed by incubation with 8-Br-cGMP (10 µM).

[1] = test system: normal human bronchial epithelial (NHBE) cells; test: UTP-induced mucin secretion, air-liquid interface culture, mucus ELISA; type: cell-based; details: for mucin secretion in cells stimulated by secretagogues: general statement, Example 9: 15 min pre-incubation, UTP 0.1 mM 2 hours, 500 nM calphostin C, 10 µM Rp-8-Br-PET-cGMP, 50 µM LY83583
Description: (§2) Cell Culture System: Expansion and cryopreservation. Primary normal human bronchial epithelial (NHBE) cells (Clonetics, San Diego, CA) were seeded into vented T75 tissue culture flasks (500 cells/cm^2) in bronchial epithelial basal medium (BEBM; Clonetics, San Diego, CA) containing 25 ng/ml human recombinant epidermal growth factor (EGF; Intergen, Purchase, NY), 65 ng/ml bovine pituitary extract (prepared by the methods of Bertolero et al. Exp Cell Res 155:64, 1984), 5 x 10^-8M all-trans retinoic acid, 1.5µg/ml bovine serum albumin (Intergen, Purchase, NY), 20 IU/ml nystatin (Gibco, Grand Island, NY), 0.5µg/ml hydrocortisone, 5µg/ml insulin, 10µg/ml transferrin, 0.5µg/ml epinephrine, 6.5ng/ml triiodothyronine, 50µg/ml gentamicin, and 50µg/ml amphotericin-B (Clonetics; San Diego, CA). Once confluent, cultures were dissociated with trypsin/EDTA and frozen as passage-2 according to the methods of Clonetics Corporation.
Air-liquid interface culture of NHBE cells. Following the expansion, NHBE cells were cultured in air/liquid interface according to the methods of Gray and coworkers with minor modifications (Gray et al. Am J Respir Cell Mol Biol 14:104, 1996). The air-liquid interface culture was initiated by seeding NHBE cells (passage-2, 2x10^4 cells/cm^2) on Transwell-clear culture inserts (24.5 mm, 0.45 µm pore size; Costar, Cambridge, MA) that were thin coated with rat tail collagen, type I (Collaborative Research, Bedford, MA). Cells were cultured submerged to 70% confluency (5-7 days) in a 1:1 mixture of bronchial epithelial cell growth medium (Clonetics, San Diego, CA):Dulbecco's modified Eagles medium with high glucose (BEGM:DMEM-H), containing the same supplements as described above with the exception of EGF (0.5 ng/ml). When cultures were 70% confluent, the air-liquid interface was created by removing the apical medium, and the basal medium (BEGM:DMEM-H) was changed daily thereafter. Cells were then cultured for an additional 14 days in air-liquid interface, a total of 21 days in culture.
(§3) Mucus ELISA: Mucus secreted from the airway epithelial cells in vitro after stimulation by activators was assessed using an ELISA (antibody capture method) (E. Harlow, D. Lane. "Antibodies: A Laboratory Manual." New York: Cold Spring Harbor Laboratory Press, 1988), wherein the collected mucus is bound directly to the ELISA plate. Mucus was detected using an antibody raised against monkey airway mucus (Lin et al. Am J Respir Cell Mol Biol 1:41, 1989). […]
NHBE cells were pre-incubated with the indicated inhibitor for 15 min, then stimulated with UTP (0.1mM) for 2 hours. Secreted mucin in the apical medium was collected and assayed by ELISA.

[2] = test system: normal human bronchial epithelial (NHBE) cells; test: Mucin secretion stimulated by PMA + 8-Br-cGMP, air-liquid interface culture, mucus ELISA; type: cell-based; details: 500nM, pre-incubated 15 min; PMA (100 nM) + 8-Br-cGMP (1µM) for 15 min
Description: as §2, with “Corporation. […]” for “Corporation.”
as §3

[3] = target: T1, cGMP-dependent protein kinase type 1α (PKG-1α) (Homo sapiens, UniProt Q13976); test: PKG activity in NHBE cells; type: cell-based; details: 100 µM
T1 construct: NHBE cells also contained substantial amounts of cGMP-dependent protein kinase type 1α (PKG-1α) activity; endogenous in cells; host or cells: primary normal human bronchial epithelial (NHBE) cells, Clonetics
T1 sequence (Q13976 1-671): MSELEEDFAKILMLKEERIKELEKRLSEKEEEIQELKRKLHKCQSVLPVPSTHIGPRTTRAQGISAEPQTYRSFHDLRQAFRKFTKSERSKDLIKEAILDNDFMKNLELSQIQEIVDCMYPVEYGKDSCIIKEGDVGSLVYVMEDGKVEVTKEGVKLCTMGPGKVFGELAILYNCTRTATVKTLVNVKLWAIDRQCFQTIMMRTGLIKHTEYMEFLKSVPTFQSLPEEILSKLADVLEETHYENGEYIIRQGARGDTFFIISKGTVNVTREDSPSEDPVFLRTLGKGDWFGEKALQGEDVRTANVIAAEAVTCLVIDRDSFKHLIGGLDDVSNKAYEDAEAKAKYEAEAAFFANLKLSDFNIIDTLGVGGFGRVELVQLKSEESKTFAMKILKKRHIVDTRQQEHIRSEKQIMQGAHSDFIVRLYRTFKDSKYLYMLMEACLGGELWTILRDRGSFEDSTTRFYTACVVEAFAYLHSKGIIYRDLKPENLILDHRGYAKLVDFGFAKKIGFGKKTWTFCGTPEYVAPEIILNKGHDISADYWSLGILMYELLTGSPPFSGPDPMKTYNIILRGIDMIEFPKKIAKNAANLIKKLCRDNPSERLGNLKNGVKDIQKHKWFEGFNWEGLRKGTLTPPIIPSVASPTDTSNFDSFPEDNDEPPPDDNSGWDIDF
Description: as §1

For Nc1nc2c(nc(Br)n2[C@@H]2O[C@@H]3COP(=O)(O)O[C@H]3[C@H]2O)c(=O)[nH]1 [8-Br-cGMP, 8-bromo-cGMP], the “phosphorylation of MARCKS induced by PMA” value (MARCKS; 10 µM) was “reversed”.
For O=C1C(Nc2ccccc2)=CC(=O)c2ncccc21 [LY83585], the “mucin secretion in cells stimulated by secretagogues” value (from here on “mucin secretion in cells stimulated”) [1] was “inhibit mucin secretion”.
For CCCCCCCCCCCCCC(=O)O[C@@H]1[C@@H](C)[C@@]2(O)[C@@H](C=C(CO)C[C@]3(O)C(=O)C(C)=C[C@@H]23)[C@@H]2C(C)(C)[C@]12OC(C)=O [PMA, phorbol 12-myristate 13-acetate], the “phosphorylation of MARCKS” value (MARCKS; PMA 100 nM, concentration of 4α-PMA not given) was “phosphorylated”.
With O=c1c2nc(Br)n(C3OC4COP(=O)(S)OC4C3O)c2nc2[nH]c(-c3ccccc3)cn12 (centres unmarked) [Rp-8-Br-PET-cGMP] the “mucin secretion in cells stimulated” value [1] was “inhibit mucin secretion”.
In the case of C=C1[C@@H](O)[C@@H]2O[C@]3(CC[C@H](/C=C/[C@@H](C)[C@@H]4CC(C)=C[C@@]5(O[C@H](C[C@@](C)(O)C(=O)O)CC[C@H]5O)O4)O3)CC[C@H]2O[C@@H]1[C@@H](O)C[C@H](C)[C@H]1O[C@@]2(CCCCO2)CC[C@H]1C [okadaic acid], the “mucin hypersecretion induced by PMA + 8-Br-cGMP” value [2] is reported as “blocks mucin hypersecretion”, the “mucin hypersecretion induced by UTP” value ([1]; 500nM, pre-incubated 15 min, UTP (0.1 mM) for 2 hours) is reported as “blocks mucin hypersecretion” and the “mucin secretion in cells stimulated” value [1] is reported as “inhibit mucin secretion”. For the same compound, the “reversal by 8-Br-cGMP of PMA-induced phosphorylation of MARCKS” value (MARCKS; 500 nM) was “inhibited this effect”.
With calphostin C the “mucin secretion in cells stimulated” value [1] was “inhibit mucin secretion” and the “phosphorylation of MARCKS by PMA” value (MARCKS; 500 nM) was “attenuated”.
dibutyryl cGMP was tested, and the “constitutive PKG activity” value [3] was “increased”.
